Laboratory results reported in patent US8680076B2, “Methods of treatment, improvement and prevention using haloaryl substituted aminopurines” (Signal Pharmaceuticals, LLC, priority 2010, dated 2014).
“Also recorded” adds a separate entry of the source.

Tests used:
[1] = tested on: DBA/2J mice, bleomycin-induced skin fibrosis; assay: Bleomycin-induced dermal fibrosis mouse model (preventive treatment); type: in vivo; conditions: for reduction of collagen content in lesional skin (hydroxyproline assay): compared to bleomycin-treated animals
Method: The selective JNK inhibitor Compound JNKi-1 was tested in a bleomycin-induced dermal fibrosis mouse model, which is considered to represent the early and inflammatory stages of systemic sclerosis (Akhmetshina A, Venalis P, Dees C, Busch N, Zwerina J, Schett G, Distler O, Distler J H, Treatment with imatinib prevents fibrosis in different preclinical models of systemic sclerosis and induces regression of established fibrosis, Arthritis Rheum. 2009; 60(1):219-24). […] In animal models it will similarly induce injury and fibrosis at the site of delivery.
Male and female DBA/2J mice were used. Mice were fed a standard diet with water ad libitum. The room temperature was kept constant at 22° C. with a humidity of 60%.
Compound JNKi-1 was dissolved in 0.5% carboxymethylcellulose (CMC)/0.25% Tween 80 in water. Bleomycin was dissolved in 0.9% sodium chloride (NaCl) at a concentration of 0.5 mg/mL in a total volume of 100 μL. The positive control compound Imatinib mesylate was dissolved in 0.9% NaCl at a concentration of 50 mg/kg/day in a total volume of 100 μL.
Two different dose levels of the JNK-inhibitor Compound JNKi-1 (50 mg/kg and 150 mg/kg, administered twice daily) were used to analyze the anti-fibrotic activity in a mouse model of bleomycin-induced skin fibrosis. […] DBA/2J mice (n=5/sex/group) were assigned to one of five treatment groups: • Control group: 0.5% CMC/0.25% Tween 80 in water orally (PO) twice daily (BID) and subcutaneous injections of 100 μL 0.9% NaCl. • Untreated bleomycin group: intradermal injection of bleomycin and 0.5% CMC/0.25% Tween 80 in water orally BID. • 50 mg/kg Compound JNKi-1: intradermal injection of bleomycin and Compound JNKi-1 orally BID. • 150 mg/kg Compound JNKi-1: intradermal injection of bleomycin and Compound JNKi-1 orally BID. • Positive control group: intradermal injection of bleomycin and imatinib 50 mg/kg/day administered intraperitoneally (IP).
Localized dermal fibrosis was induced by injection of bleomycin every other day for 3 weeks in defined areas of the upper back. Compound JNKi-1 or imatinib was administrated starting from the first dose of bleomycin.
The dermal thickness was determined by staining with hematoxylin and eosin (H & E). The activated fibroblasts (myofibroblasts) at the fibrotic lesions were quantified by immunohistochemistry (IHC) for alpha smooth muscle actin (α-SMA). Collagen concentration in lesional skin was analyzed by hydroxyproline assay. Data are expressed as mean±standard error of the mean (SEM). SPSS17.0 software and the Mann-Whitney-U-test were used for statistical analyses. A p-value of less than 0.05 was considered statistically significant.

[2] = tested on: phospho-c-Jun (JNK) in EpiDermFT reconstituted human skin equivalent; assay: UVB-stimulated JNK activation in EpiDermFT skin model (Western blot); type: cell-based
Method: Two in vitro systems, nHEK and the EpiDermFT™ skin model, were used in this study. The nHEK cells and EpiDermFT™ samples were pretreated with JNKi-1 at concentrations of 0.1, 3, and 10 μM prior to 60 mJ/cm^2 and 135 mJ/cm^2 UVB irradiation, respectively. After UV stimulation, the activities of JNK were measured as levels of phospho-c-Jun via immunoblotting of cell lysates using an anti-phospho-c-Jun S63 antibody. Phospho-Stat3 was also evaluated as a marker of JNK activation.
Samples were cultured in 2 mL of serum-free maintenance media (EFT-200-MM) for 72 hr. After 72 hr, the media was replaced with 2 mL of fresh media containing 0, 0.1, 3, and 10 μM of JNKi-1, respectively). Samples were allowed to soak at 37° C., 5% CO2 for 6 hr, then removed from the media and placed into 2 mL of PBS and irradiated with 135 mJ/cm^2 of UVB. Controls were sham irradiated. Samples were placed back into 2 mL of media containing JNKi-1. Samples were harvested at 30 minutes and 3 hr post UV treatment. Each sample was cut in half; one half was snap frozen in liquid nitrogen, homogenized in lysis buffer, and lysates stored at −80° C. The other half was placed in 10% neutral buffer formalin for 3 hr and transferred to 100% ethanol for processing
cells were pre-incubated with either dimethyl sulfoxide (DMSO) (FIG. 31, lanes 1, 2, and 12 to 15) or JNKi-1 at the indicated concentration (lanes 3 to 11) for 1 hr and then irradiated without (Control, lanes 1 and 2) or with UVB at 60 mJ/cm^2 (lanes 3 to 15). Cells were lysed 30 minutes after UV irradiation and cell lysates were subjected to sodium dodecyl sulfate polyacrylamide gel electrophoresis (SDS-PAGE) before Western blotting with anti-phospho-c-Jun antibody. […]
Western analysis: For Western blot analysis, 20 to 25 μg of total protein were applied to SDS-PAGE gels followed by electrophoresis and blotting. […] The intensity of each band was quantified by the Odyssey 2.1 software and exported into Excel for further analysis. […]

## O[C@H]1CC[C@H](Nc2ncc3nc(Nc4c(F)cc(F)cc4F)n([C@H]4CCOC4)c3n2)CC1 [JNKi-1, 4-((9-((3S)-tetrahydro-3-furanyl)-8-((2,4,6-trifluorophenyl)amino)-9H-purin-2-yl)amino)-trans-cyclohexanol]
[1]; 50 mg/kg orally BID, 3 weeks bleomycin, mean±SEM
  decrease of dermal thickness: 24%±5%
[1]; 50 mg/kg orally BID
  reduction of collagen content in lesional skin (hydroxyproline assay): 29%±11%
[1]; 50 mg/kg orally BID, mean±SEM
  reduction of number of myofibroblasts (α-SMA IHC): 80%±10%
[1]; 150 mg/kg orally BID
  reduction of collagen content in lesional skin (hydroxyproline assay): 47%±9%
[1]; 150 mg/kg orally BID, mean±SEM
  reduction of number of myofibroblasts (α-SMA IHC): 101%±9%
[1]; 50 and 150 mg/kg orally BID
  collagen content in lesional skin (in words): reduced dose-dependently
  dermal thickness / development of fibrosis (in words): decreased dose-dependently; also recorded: reduced dose dependently; also recorded: significantly ameliorated; also recorded: dose-dependently inhibited dermal thickness
  myofibroblasts in lesional skin (in words): significantly decreased; also recorded: completely prevented
[2]; EpiDermFT, 0.1, 3, 10 μM
  UVB-induced JNK activation (phospho-c-Jun level), in words: strongly Inhibits; also recorded: significantly blocks
[2]; EpiDermFT, 30 minutes post UV, data not shown
  inhibition of phospho-Stat3: minimal
[2]; Homo sapiens, light or radiation study, 0.5 h, EpiDermFT, UVB 135 mJ/cm^2, lysed 30 minutes after UV, read-out: IC50 for p-cJun
  IC50: 0.1 to 3 µM
